Assay results taken from article PMC7501296, “Rapid and direct control of target protein levels with VHL-recruiting dTAG molecules” (Nature Communications, 2020).
Where “and” joins values, the source holds several entries; their conditions need not be identical. Equal values may be shown once.

Tests used:
Assay type in all cases: cell-based
[1] = target: T1, FKBP12^WT-Nluc (Homo sapiens, UniProt P62942); assay: FKBP12WT-Nluc dual luciferase assay (293FT); conditions: 293FT FKBP12WT-Nluc, 24 h
T1 construct: expressed in transfected cells; host or cells: 293FT
Protocol: (§1) Dual luciferase assays were performed using 293FT FKBP12^WT-Nluc and FKBP12^F36V-Nluc cells. In brief, cells were plated at 2000 cells per well in 20 µL of appropriate media in 384-well white culture plates (Corning), allowed to adhere overnight, and 100 nL of compounds were added using a Janus Workstation pin tool (PerkinElmer) for 24 h at 37 °C. To evaluate Fluc signal, plates were brought to room temperature, 20 µL of Dual-Glo Reagent (Promega) was added for 10 min and luminescence was measured on an Envision 2104 plate reader (PerkinElmer). Subsequently, 20 µL of Dual-Glo Stop & Glo Reagent (Promega) was added for 10 min and luminescence was again measured to capture Nluc signal. DMSO-normalized ratios of Nluc/Fluc signal was analyzed and plotted using GraphPad PRISM v8[6].

[2] = target: T2, FKBP12^F36V-Nluc (Homo sapiens, UniProt P62942, F37V); assay: FKBP12F36V-Nluc dual luciferase assay (293FT); conditions: 293FT FKBP12F36V-Nluc, 24 h
T2 construct: expressed in transfected cells; host or cells: 293FT
Protocol: as §1

[3] = test system: PATU-8902 LACZ-FKBP12^F36V clone; assay: Antiproliferation, PATU-8902 LACZ-FKBP12F36V clone, 3D-spheroid (CellTiter-Glo)
Protocol: (§2) Cell viability was assayed in 2D-adherent or ultra-low adherent 3D-spheroids using CellTiter-Glo (Promega)[6],[15]. Luminescence was measured on an Envision 2104 plate reader (PerkinElmer) and Fluostar Omega Reader (BMG Labtech) and data was analyzed using GraphPad PRISM v8. Synergy assessments were performed using CellTiter-Glo (Promega) with the following modifications to the protocol described in the ref. [34]. In brief, EWS502 cells were plated at 1000 cells per well in 50 µL of appropriate media in 384-well white culture plates (Corning) allowed to adhere overnight, and 100 nL of compounds were added using a Janus Workstation pin tool (PerkinElmer) for 72 h. Cell viability was measured by addition of 10 µL of CellTiter-glo (Promega), followed by incubation for 15 minutes at room temperature. Luminescence was measured on an Envision 2104 plate reader (PerkinElmer) and data was analyzed using GraphPad PRISM v8.

[4] = test system: PATU-8902 FKBP12^F36V-KRAS^G12V; KRAS^-/- clone; assay: Antiproliferation, PATU-8902 FKBP12F36V-KRASG12V; KRAS-/- clone, 3D-spheroid (CellTiter-Glo); conditions: FKBP12F36V-KRASG12V, KRAS-/-, 3D-spheroid, replicate values
Protocol: as §2

[5] = test system: PATU-8902 LACZ-FKBP12^F36V clone; assay: Antiproliferation, PATU-8902 LACZ-FKBP12F36V clone, 2D-monolayer (CellTiter-Glo)
Protocol: as §2

[6] = test system: PATU-8902 FKBP12^F36V-KRAS^G12V; KRAS^-/- clone; assay: Antiproliferation, PATU-8902 FKBP12F36V-KRASG12V; KRAS-/- clone, 2D-monolayer (CellTiter-Glo)
Protocol: as §2

[7] = log10[compound] (M) -5.30103, single replicates
[8] = log10[compound] (M) -5.80103, single replicates
[9] = log10[compound] (M) -6.30103, single replicates
[10] = log10[compound] (M) -6.80103, single replicates
[11] = log10[compound] (M) -7.30103, single replicates
[12] = log10[compound] (M) -7.80103, single replicates
[13] = log10[compound] (M) -8.30103, single replicates
[14] = log10[compound] (M) -8.80103, single replicates
[15] = log10[compound] (M) -9.30103, single replicates
[16] = log10[compound] (M) -9.80103, single replicates
[17] = log10[compound] (M) -5.69897, replicate values
[18] = log10[compound] (M) -6.19897, replicate values
[19] = log10[compound] (M) -6.69897, replicate values
[20] = log10[compound] (M) -7.19897, replicate values
[21] = log10[compound] (M) -7.69897, replicate values
[22] = log10[compound] (M) -8.19897, replicate values
[23] = log10[compound] (M) -8.69897, replicate values
[24] = log10[compound] (M) -9.19897, replicate values
[25] = log10[compound] (M) -9.69897, replicate values
[26] = log10[compound] (M) -10.199, replicate values

T2 sequence (P62942 2-108 F37V limits assumed): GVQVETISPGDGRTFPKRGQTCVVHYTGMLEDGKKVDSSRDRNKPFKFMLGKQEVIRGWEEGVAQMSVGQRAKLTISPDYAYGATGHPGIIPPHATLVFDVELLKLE
T1 sequence (P62942 2-108 limits assumed): as the sequence (P62942 2-108 F37V limits assumed) above, with V36F counted along it

SMILES: CC[C@H](C(=O)N1CCCC[C@H]1C(=O)O[C@H](CCc1ccc(OC)c(OC)c1)c1ccccc1OCC(=O)NCCCCCCOc1cccc2c1C(=O)N(C1CCC(=O)N(C)C1=O)C2=O)c1cc(OC)c(OC)c(OC)c1 (stereo partly drawn) [dTAG-13-NEG]
- DMSO-normalized ratio of Nluc/Fluc signal [1, 7]: 67.0666 and 77.8998 and 91.6821 and 102.898
- DMSO-normalized ratio of Nluc/Fluc signal [1, 8]: 78.9348 and 111.471 and 83.3725 and 82.7897
- DMSO-normalized ratio of Nluc/Fluc signal [1, 9]: 92.3022 and 94.9354 and 69.2394 and 97.8278
- DMSO-normalized ratio of Nluc/Fluc signal [1, 10]: 96.006 and 100.644 and 74.9876 and 76.7216
- DMSO-normalized ratio of Nluc/Fluc signal [1, 11]: 72.8244 and 95.6646 and 99.6579 and 99.4332
- DMSO-normalized ratio of Nluc/Fluc signal [1, 12]: 97.6563 and 103.416 and 111.647 and 107.58
- DMSO-normalized ratio of Nluc/Fluc signal [1, 13]: 72.1292 and 95.3278 and 119.638 and 97.0458
- DMSO-normalized ratio of Nluc/Fluc signal [1, 14]: 78.9909 and 117.088 and 62.8565 and 76.9455
- DMSO-normalized ratio of Nluc/Fluc signal [1, 15]: 119.218 and 128.013 and 101.879 and 100.194
- DMSO-normalized ratio of Nluc/Fluc signal [1, 16]: 65.6358 and 99.3457 and 89.3391 and 80.9056
- DMSO-normalized ratio of Nluc/Fluc signal [2, 7]: 107.485 and 132.51 and 146.194 and 142.752
- DMSO-normalized ratio of Nluc/Fluc signal [2, 8]: 129.127 and 105.072 and 162.6 and 136.425
- DMSO-normalized ratio of Nluc/Fluc signal [2, 9]: 79.0888 and 120.578 and 92.5034 and 88.448
- DMSO-normalized ratio of Nluc/Fluc signal [2, 10]: 88.2422 and 88.8583 and 65.8176 and 62.4888
- DMSO-normalized ratio of Nluc/Fluc signal [2, 11]: 134.755 and 99.5368 and 72.6182 and 68.5345
- DMSO-normalized ratio of Nluc/Fluc signal [2, 12]: 97.7941 and 97.6227 and 54.6259 and 65.8847
- DMSO-normalized ratio of Nluc/Fluc signal [2, 13]: 87.9478 and 99.3529 and 98.1344 and 118.766
- DMSO-normalized ratio of Nluc/Fluc signal [2, 14]: 97.4127 and 84.7262 and 88.2477 and 92.5526
- DMSO-normalized ratio of Nluc/Fluc signal [2, 15]: 102.465 and 92.5515 and 101.177 and 79.93
- DMSO-normalized ratio of Nluc/Fluc signal [2, 16]: 77.6015 and 76.7835 and 70.5544 and 62.7116
- DMSO-normalized antiproliferation [3, 17]: 78.2662 and 80.6112 and 107.636 and 101.511
- DMSO-normalized antiproliferation [3, 18]: 115.881 and 119.912 and 109.909 and 110.138
- DMSO-normalized antiproliferation [3, 19]: 134.032 and 111.738 and 124.289 and 133.898
- DMSO-normalized antiproliferation [3, 20]: 111.46 and 97.6141 and 114.554 and 105.672
- DMSO-normalized antiproliferation [3, 21]: 122.388 and 133.597 and 106.246 and 144.762
- DMSO-normalized antiproliferation [3, 22]: 120.684 and 101.999 and 116.106 and 132.987
- DMSO-normalized antiproliferation [3, 23]: 123.405 and 123.822 and 121.356 and 113.012
- DMSO-normalized antiproliferation [3, 24]: 108.263 and 109.792 and 100.309 and 162.971
- DMSO-normalized antiproliferation [3, 25]: 109.842 and 96.251 and 145.82 and 104.761
- DMSO-normalized antiproliferation [3, 26]: 93.2647 and 77.5801 and 110.815 and 107.241
- DMSO-normalized antiproliferation ([4]; log10[compound] (M) -5.69897): 96.8823 and 98.3914 and 98.1687 and 89.6654
- DMSO-normalized antiproliferation ([4]; log10[compound] (M) -6.19897): 105.48 and 122.576 and 96.899 and 128.406
- DMSO-normalized antiproliferation ([4]; log10[compound] (M) -6.69897): 114.368 and 120.61 and 116.857 and 110.62
- DMSO-normalized antiproliferation ([4]; log10[compound] (M) -7.19897): 96.9046 and 91.4307 and 93.53 and 114.106
- DMSO-normalized antiproliferation ([4]; log10[compound] (M) -7.69897): 103.386 and 104.261 and 89.7267 and 101.721
- DMSO-normalized antiproliferation ([4]; log10[compound] (M) -8.19897): 101.449 and 95.4289 and 118.555 and 115.899
- DMSO-normalized antiproliferation ([4]; log10[compound] (M) -8.69897): 120.176 and 108.237 and 116.378 and 119.908
- DMSO-normalized antiproliferation ([4]; log10[compound] (M) -9.19897): 94.538 and 95.4846 and 105.848 and 104.818
- DMSO-normalized antiproliferation ([4]; log10[compound] (M) -9.69897): 83.4954 and 97.4225 and 109.1 and 101.059
- DMSO-normalized antiproliferation ([4]; log10[compound] (M) -10.199): 96.7821 and 78.8679 and 98.5696 and 88.8079
- DMSO-normalized antiproliferation [5, 17]: 72.8225 and 72.1303 and 101.197 and 90.2175
- DMSO-normalized antiproliferation [5, 18]: 131.635 and 91.018 and 75.6842 and 106.809
- DMSO-normalized antiproliferation [5, 19]: 122.78 and 97.8706 and 155.447 and 120.938
- DMSO-normalized antiproliferation [5, 20]: 130.888 and 102.417 and 116.74 and 117.366
- DMSO-normalized antiproliferation [5, 21]: 130.608 and 108.743 and 109.209 and 155.426
- DMSO-normalized antiproliferation [5, 22]: 126.2 and 112.564 and 135.746 and 163.91
- DMSO-normalized antiproliferation [5, 23]: 114.853 and 118.921 and 108.594 and 114.639
- DMSO-normalized antiproliferation [5, 24]: 149.935 and 111.753 and 119.231 and 88.5759
- DMSO-normalized antiproliferation [5, 25]: 130.478 and 106.921 and 102.092 and 104.28
- DMSO-normalized antiproliferation [5, 26]: 146.921 and 153.043 and 111.382 and 113.309
- DMSO-normalized antiproliferation [6, 17]: 50.9912 and 75.2013 and 73.3197 and 81.1372
- DMSO-normalized antiproliferation [6, 18]: 68.0095 and 98.7671 and 119.504 and 100.111
- DMSO-normalized antiproliferation [6, 19]: 129.938 and 93.0967 and 131.778 and 96.6262
- DMSO-normalized antiproliferation [6, 20]: 111.6 and 154.459 and 120.786 and 146.95
- DMSO-normalized antiproliferation [6, 21]: 99.1211 and 134.569 and 105.935 and 133.398
- DMSO-normalized antiproliferation [6, 22]: 121.063 and 109.153 and 96.3979 and 125.341
- DMSO-normalized antiproliferation [6, 23]: 116.243 and 134.344 and 103.587 and 114.006
- DMSO-normalized antiproliferation [6, 24]: 75.2314 and 130.564 and 98.3202 and 135.021
- DMSO-normalized antiproliferation [6, 25]: 119.764 and 98.922 and 106.747 and 99.1636
- DMSO-normalized antiproliferation [6, 26]: 97.9582 and 111.563 and 110.426 and 109.944
